Measurements taken from patent US5439885A, “CRF analogs” (The Salk Institute for Biological Studies, priority 1993, dated 1995).
Entries after “also recorded” stand apart in the source; their conditions may differ. Read-outs that look alike come from different tables or passages of the source. Where a SMILES comes first, the peptide text is derived from it. Where no end group is shown, it is not given here. [ ]: non-standard residue; d: D form. Nle = CCCC[C@H](N)C(=O)O

Assays:
[1] = biopotency of CRF analog (test not specified)
[2] = lowering of blood pressure when injected peripherally; type: in vivo, mammals; details: e.g. intravenously
[3] = test system: secretion of ACTH and β-END-LI; experiment: inhibition of the secretion of ACTH and β-END-LI by CRF antagonists; type: in vivo; details: injected peripherally
rats = details: administered into the ventricles; cited from earlier work
[4] = CRF in the brain; cited from earlier work
[5] = test system: secretion of ACTH and β-END-LI; experiment: in vivo stimulation of the secretion of ACTH and β-END-LI
Method: (§1) The synthetic CRF agonist peptides [Ala^20 ]-oCRF and [Ala^39 ]-oCRF are examined for their effects on the secretion of ACTH and β-endorphin in vitro and also in vivo. The potency of synthetic oCRF analogs to stimulate the secretion of ACTH and β-endorphin by cultured rat pituitary cells is measured using the procedure as generally set forth in Endocrinology, 91, 562 (1972) and compared against synthetic oCRF. [Ala^20 ]-oCRF is considered to be about 2 to 4 times as potent as the native hormone. […] In vivo testing which can be carried out using the general procedure set forth in C.

[6] = test system: cultured rat pituitary cells; type: cell-based
Method: as §1

[7] = test system: secretion of ACTH and β-END-LI; details: background statement; cited from earlier work
[8] = test system: cultured rat pituitary cells; details: background statement; cited from earlier work
[9] = background statement; cited from earlier work

Compound	biopotency [1]	stimulation of ACTH and β-endorphin-like activities (β-END-LI) in vivo [7]	stimulation of ACTH and β-endorphin-like activities (β-END-LI) in vitro [8]	lowering of blood pressure [9]	other results
CC[C@H](C)[C@H](NC(=O)[C@@H](NC(=O)[C@H](CCC(=O)O)NC(=O)[C@H](CCSC)NC(=O)[C@H](CC(C)C)NC(=O)[C@H](CCCCN)NC(=O)[C@H](CCCNC(=N)N)NC(=O)[C@H](CC(N)=O)NC(=O)[C@H](CO)NC(=O)[C@H](Cc1c[nH]cn1)NC(=O)[C@H](C)NC(=O)[C@H](CCC(N)=O)NC(=O)[C@H](CCC(N)=O)NC(=O)[C@H](C)NC(=O)[C@H](CC(C)C)NC(=O)[C@H](CCC(N)=O)NC(=O)[C@H](CCC(=O)O)NC(=O)[C@H](C)NC(=O)[C@H](CCCNC(=N)N)NC(=O)[C@H](C)NC(=O)[C@H](CCSC)NC(=O)[C@H](C)NC(=O)[C@H](CC(C)C)NC(=O)[C@@H](NC(=O)[C@H](CCC(=O)O)NC(=O)[C@H](CCCNC(=N)N)NC(=O)[C@H](CC(C)C)NC(=O)[C@H](CC(C)C)NC(=O)[C@H](Cc1c[nH]cn1)NC(=O)[C@@H](Cc1ccccc1)NC(=O)[C@@H](NC(=O)[C@H](CC(C)C)NC(=O)[C@H](CC(=O)O)NC(=O)[C@H](CC(C)C)NC(=O)[C@H](CO)NC(=O)[C@@H](NC(=O)[C@@H]1CCCN1C(=O)[C@@H]1CCCN1C(=O)[C@@H](N)CCC(=O)O)[C@@H](C)CC)[C@@H](C)O)C(C)C)[C@@H](C)CC)C(N)=O [IV] (H-EPPISLDLT[dF]HLLREVLAMARAEQLAQQAHSNRKLMEII-NH2)	biopotent	–	–	–	lowering of blood pressure [2]: significant lowering of blood pressure
CCCC[C@H](NC(=O)[C@H](C)NC(=O)[C@H](CC(C)C)NC(=O)[C@@H](NC(=O)[C@H](CCC(=O)O)NC(=O)[C@H](CCCNC(=N)N)NC(=O)[C@H](CC(C)C)NC(=O)[C@H](CC(C)C)NC(=O)[C@H](Cc1c[nH]cn1)NC(=O)[C@H](N)Cc1ccccc1)C(C)C)C(=O)N[C@@H](C)C(=O)N[C@@H](CCCNC(=N)N)C(=O)N[C@@H](C)C(=O)N[C@@H](CCC(=O)O)C(=O)N[C@@H](CCC(N)=O)C(=O)N[C@@H](CC(C)C)C(=O)N[C@@H](C)C(=O)N[C@@H](CCC(N)=O)C(=O)N[C@@H](CCC(N)=O)C(=O)N[C@@H](C)C(=O)N[C@@H](Cc1c[nH]cn1)C(=O)N[C@@H](CO)C(=O)N[C@@H](CC(N)=O)C(=O)N[C@@H](CCCNC(=N)N)C(=O)N[C@@H](CCCNC(=N)N)C(=O)N[C@@H](CC(C)C)C(=O)N[C@@H](CCCC)C(=O)N[C@@H](C)C(=O)N[C@H](C(=O)N[C@H](C(N)=O)[C@@H](C)CC)[C@@H](C)CC [IX] (H-[dF]HLLREVLA[Nle]ARAEQLAQQAHSNRRL[Nle]AII-NH2)	biopotent	–	–	–	inhibition of the secretion of ACTH and β-END-LI [3]: inhibits the secretion of ACTH and β-END-LI
CRF: physiologic corticotropin releasing factor, a hentetracontapeptide; species form not specified at the place (SEEPPISLDLTFHLLREVLEMARAEQLAQQAHSNRKLMEII-NH2; ends and bridges not checked; UniProt P06850 154-194, looked up)	–	–	–	–	activity (rats): increases activity; learning performance (rats): improves learning performance; respiratory rate [4]: appears to increase respiratory rate
SEEPPISLDLT[dF]HLLREVLA[Nle]ARAEQLAQQAHSNRRL[Nle]AII-NH2 [VIA]	biopotent	–	–	–	stimulation of the secretion of ACTH and β-END-LI [5]: stimulates the secretion of ACTH and β-END-LI; lowering of blood pressure [2]: significant lowering of blood pressure
SQEPPISLDLTFHLLREVLAMTKADQLAQQAHSNRKLLDIA-NH2 [Example I]	–	–	–	–	potency to stimulate the secretion of ACTH and β-endorphin, times as potent as the native hormone [6]: 2-4 times
SQEPPISLDLTFHLLREVLEMTKADQLAQQAHSNRKLLAIA-NH2 [II]	–	–	–	–	increase in biopotency in vitro over the native hormone [6]: ~85%
Ser-Gln-Glu-Pro-Pro-Ile-Ser-Leu-Asp-Leu-Thr-Phe-His-Leu-Leu-Arg-Glu-Val-Leu-Glu-Met-Thr-Lys-Ala-Asp-Gln-Leu-Ala-Gln-Gln-Ala-His-Ser-Asn-Arg-Lys-Leu-Leu-Asp-Ile-Ala (SQEPPISLDLTFHLLREVLEMTKADQLAQQAHSNRKLLDIA) [oCRF]	–	stimulates the secretion of ACTH and β-endorphin; also recorded: stimulate ACTH and β-endorphin-like activities	stimulate ACTH and β-endorphin-like activities	lowers blood pressure; also recorded: substantially lower blood pressure	–
Ser-Gln-Glu-Pro-Pro-Ile-Ser-Leu-Asp-Leu-Thr-phe-His-Leu-Leu-Arg-Glu-Met-Leu-Glu-Met-Ala-Lys-Ala-Glu-Gln-Glu-Ala-Glu-Gln-Ala-Ala-Leu-Asn-Arg-Leu-Leu-Leu-Glu-Glu-Ala (SQEPPISLDLTFHLLREMLEMAKAEQEAEQAALNRLLLEEA) [AHC]	–	stimulate ACTH and β-endorphin-like activities	stimulate ACTH and β-endorphin-like activities	substantially lower blood pressure	–
Ser-Glu-Glu-Pro-Pro-Ile-Ser-Leu-Asp-Leu-Thr-phe-His-Leu-Leu-Arg-Glu-Val-Leu-Glu-Met-Ala-Arg-Ala-Glu-Gln-Leu-Ala-Gln-Gln-Ala-His-Ser-Asn-Arg-Lys-Leu-Met-Glu-Ile-Ile (SEEPPISLDLTFHLLREVLEMARAEQLAQQAHSNRKLMEII) [rCRF]	–	stimulate ACTH and β-endorphin-like activities	stimulate ACTH and β-endorphin-like activities	substantially lower blood pressure	–
